US11944607B2, “Treatment of progressive neurodegenerative disease with ibudilast” (MediciNova, Inc., priority 2007, dated 2024)
Several values for one entry are separate records, joined by “and”; a condition that tells them apart may be missing. Equal entries are not always repeated.

What was measured:
[1] = tested on: patients with multiple sclerosis; test: Phase II clinical trial: brain volume loss by cranial MRI; format: in vivo, human
Description: (§1) A Phase II placebo-controlled, randomized, double-blind study was conducted using ibudilast in patients with multiple sclerosis. During year 1, patients were treated with 0 mg tid (placebo), 10 mg tid or 20 mg tid of ibudilast; during year 2, patients on placebo were randomized to receive either 10 mg tid or 20 mg tid of ibudilast (patients on 10 mg tid or 20 mg tid during the first year of the study continued on that dose during the second year). A baseline MRI scan was taken two weeks prior to treatment. Brain volume changes were assessed on an annual basis with subsequent MRI scans. MRI scans were performed every two months of the 2-year period to assess changes in T1 and T2 lesions.

[2] = tested on: animal model for Parkinson's disease; test: Animal model for Parkinson's disease; format: in vivo; conditions: present-tense example without data
[3] = tested on: rat animal model for Alzheimer's disease; test: Rat animal model for Alzheimer's disease; format: in vivo; conditions: present-tense example without data
[4] = tested on: animal model for progressive multiple sclerosis; test: Animal model for progressive multiple sclerosis; format: in vivo; conditions: progressive MS model; present-tense example without data
[5] = tested on: patients with multiple sclerosis; test: Phase II clinical trial: double-blind MRI analysis of new lesion evolution to persistent black holes; format: in vivo, human; conditions: for Mean Proportion of Lesions Evolving to PBH / Median Proportion of Lesions Evolving to PBH: new lesions at month 2, PBH at month 10
From the text: The study is the result of randomized, double-blind, placebo-controlled analysis of year 1 MRI data with MN-166 administration. MRIs were collected bimonthly during the one year treatment period and were re-evaluated in a double-blind manner for this new analysis. Predefined endpoints for this evaluation were the rate of evolution of new lesions to persistent black holes and remyelinated lesions. The predefined statistical endpoints were at the rate of evolution of new lesions (NL) to persistent black holes (PBH) and remyelinated lesions (RL). New T1 gadolinium-enhancing or new T2 lesions were defined as NL in the first on-study Mill at month 2. […] Hypointense lesions at month 2 or 4 that were isointense at month 10 were RL. Relative Risk (RR) of NL evolution to PBH and RL per patient was analyzed using a general linear model with the error term from the Poisson distribution.

[6] = administered systemically; cited from earlier work
[7] = tested on: activated microglia; conditions: dose-dependent; cited from earlier work
[8] = tested on: patients with multiple sclerosis; test: Phase II placebo-controlled, randomized, double-blind study: relapse and disability (EDSS) outcomes; format: in vivo, human
Description: as §1

[9] = 30 mg (N = 94), 2 Years, p = 0.0832 vs Placebo to Active
[10] = 60 mg (N = 98), 2 Years, p = 0.0516 vs Placebo to Active
[11] = 2 Year Active (pooling of 30 mg and 60 mg dose groups), 2 Years, p = 0.0264 vs Placebo to Active
[12] = Placebo to Active (to 30 mg/d), 2 Years (12 months placebo, 12 months drug)
[13] = Placebo to Active (to 60 mg/d), 2 Years (12 months placebo, 12 months drug)
[14] = Placebo to Active pooled (N = 100), 2 Years

CC(C)C(=O)c1c(C(C)C)nn2ccccc12 [ibudilast, 3-isobutyryl-2-isopropylpyrazolo[1,5-a]pyridine]
Average loss of brain volume ([1]; 60 mg a day, 1-year treatment period, placebo 1.2%, p 0.0352): 0.79%
Brain volume loss compared to the other treatment groups (cranial MRI) ([1]; 60 mg per day for 24 months, p=0.030): significantly less
Brain volume loss compared to placebo (cranial MRI) ([1]; 60 mg per day, after 12 months, p=0.04): significant reduction
Brain volume loss ([1]; extended (at least about two years) administration): reduction
Locomotion [2]: improvement
Cognitive function [3]: improvement
Functional outcomes [4]: improvement
# Patients w. New Lesions at Month 2 ([5]; 30 mg/day (n=94)): 64
Mean Proportion of Lesions Evolving to PBH ([5]; 30 mg/day): 0.20
Median Proportion of Lesions Evolving to PBH ([5]; 30 mg/day): 0.08
Relative Risk (for Evolution to PBH) vs. placebo ([5]; 30 mg/day, p=0.074, listed as MN-166): 0.735 and 0.74
# Patients w. New Lesions at Month 2 ([5]; 60 mg/day (n=98)): 56
Mean Proportion of Lesions Evolving to PBH ([5]; 60 mg/day): 0.16
Median Proportion of Lesions Evolving to PBH ([5]; 60 mg/day): 0.04
Relative Risk (for Evolution to PBH) vs. placebo ([5]; 60 mg/day, p=0.011): 0.63
Formation of black holes on MRI ([5]; first year of treatment, MS patients): decreased
Conversion of acute lesions to persistent black holes ([5]; overall benefit statement for extended administration): reduction
Blood-brain barrier crossing [6]: crosses the blood-brain barrier
Production of IL-10, NGF, GDNF and NT-4 [7]: enhance
Production of nitric oxide (NO), reactive oxygen species, IL-1beta, IL-6 and TNF [7]: suppress
Disability Progression, number of patients ([8]; 30 mg (N = 94), 1 Year): 5
Disability Progression, percent of patients ([8]; 30 mg (N = 94), 1 Year): 5.3%
Disability Progression, number of patients [8, 9]: 10
Disability Progression, percent of patients [8, 9]: (10.6%)
Disability Progression, number of patients ([8]; 60 mg (N = 98), 1 Year): 4
Disability Progression, percent of patients ([8]; 60 mg (N = 98), 1 Year): 4.1%
Disability Progression, number of patients [8, 10]: 10
Disability Progression, percent of patients [8, 10]: 10.2%
Disability progression (worsened ≥1.0 on EDSS for 4 mo) (ITT) ([8]; 60 mg/day, year 1 (Table 1), p=0.334 vs pbo): pbo - 8%, 60 mg - 4%
Annualized relapse rate ([8]; 60 mg/day, year 1, ITT, p=0.1106 vs pbo): pbo - 0.9, 60 mg - 0.7 (ITT)
IDSS (AUC of change from baseline EDSS) ([8]; 60 mg/day, year 1, ITT, p=0.1761 vs pbo): pbo: −0.05, 60 mg: −0.16 (ITT)
IDSS (AUC of change from baseline EDSS) ([8]; 60 mg/day, year 1, completers, p=0.0365 vs pbo): pbo: −0.05, 60 mg: −0.24 (completers)
Annualized relapse rate ([8]; 60 mg/day, year 1, completers, p=0.0752 vs pbo): pbo - 0.8, 60 mg - 0.6 (completers)
Time to first relapse (ITT), median ([8]; 60 mg/day, year 1, p=0.0438 vs pbo (pbo 244 days)): Median for 60 mg >1 year
EDSS (% worsened) (ITT) ([8]; 60 mg/day, year 1, p=0.1771 vs pbo): pbo - 30%, 60 mg - 21.4%
% of subjects exacerbation-free for 1 year (ITT) ([8]; 60 mg/day, p=0.033 vs pbo): pbo - 41%, 60 mg - 56.1%
Disability Progression, number of patients [8, 11]: 20/194
Disability Progression, percent of patients [8, 11]: 10.4%
Likelihood of disability progression (≥1.0 point increase in EDSS for 4 consecutive months) ([8]; 24 months of drug vs 12 months of drug, p=0.026): less likely
Disability Progression, number of patients [8, 12]: 8/51
Disability Progression, percent of patients [8, 12]: (15.7%)
Disability Progression, number of patients [8, 13]: 13/49
Disability Progression, percent of patients [8, 13]: (26.5%)
Disability Progression, number of patients [8, 14]: 21/100
Disability Progression, percent of patients [8, 14]: 21%
Decrease in the rate of sustained disability progression ([8]; extended (at least about two years) administration, compared with patients treated for less than two years): about 50%
Prolongation of time to relapse, average ([8]; extended (at least about two years) administration, compared with untreated patients): about 130 days
